Measured values: US20080242594A1, “Methods for Promoting Stem Cell Proliferation and Survival” (priority 2005, published 2008)
Entries after “also recorded” stand apart in the source; their conditions may differ.

Key:
[1] = tested on: STAT3; experiment: STAT3 phosphorylation (Ser727, Tyr705) immunoblot in CNS stem cells; format: cell-based, mouse; conditions: for effect on STAT3-Ser727 phosphorylation following Notch activation: Notch ligand treated CNS stem cells
Description: Ligands that activate JAK/STAT signaling promote astrocytic differentiation of CNS stem cells (Johe et al., Genes Dev 10:3129-40, 1996; Raj an et al., J Neurosci 18:3620-9, 1998; Bonni et al., Science 278:477-83, 1997; Song et al., Nat Neurosci 7:229-35, 2004; He et al., Nat Neurosci 8:616-625, 2005). When applying CNTF to CNS stem cells it was noted that low concentrations of CNTF stimulated survival but not expression of astrocyte specific genes. This is consistent with previous observations of Akt phosphorylation downstream of gp130 activation (Taga et al., Annu Rev Immunol 15:797-819, 1997). […] At high concentrations (20 ng/ml) the phosphorylation of Tyr705 can be blocked by an inhibitor of JAK while allowing a CNTF-induced increase in Ser727 phosphorylation (FIG. 2B) (Thompson et al., Bioorg Med Chem Lett 12:1219-23, 2002).
CNTF was used as a positive control; CNTF, induced the phosphorylation on both sites. With both CNTF and Notch activation, phosphorylation peaked at around 30 min. STAT3 phosphorylation on Ser727 following Notch activation was sensitive to the γ-secretase inhibitor DAPT (FIG. 2e). […] In contrast to CNTF, no Tyr705 phosphorylation was detected at any of the doses of Notch receptor ligands.
It was determined that insulin also maintains phosphorylation of serine 727 in STAT3 in foetal neural stem cell cultures.

[2] = tested on: Hes3; experiment: Hes3 expression (RT-PCR, immunohistochemistry) in CNS stem cells; format: cell-based, mouse; conditions: for effect on Jagged-induced Hes3 mRNA induction: CNTF at high concentrations (>1 ng/ml)
Experimental: RT-PCR: For reverse-transcriptase PCR analysis, RNA was extracted from cell cultures or brain homogenates with Trizol (Invitrogen, 15596-026), and PCR reactions were performed with the ProSTAR First-Strand RT-PCR Kit (Stratagene, 200420). Primers were used for the following genes: Hes1, Hes2, Hes3, Hes5, Hes6, Hey2; Hes7
Notch signaling regulates transcription of the Hes/Hey gene family, a group of genes implicated in the control of differentiation (Iso et al., J Cell Physiol 194:237-55, 2003). RT-PCR was used to assess mRNA regulation of these genes one hour after Notch activation in CNS stem cells. […] The ability of high concentrations of CNTF to inhibit Hes3 induction following Notch activation was dependent on JAK activity (FIG. 4e). In contrast, in the absence of added Notch ligand, Hes3 mRNA levels were elevated by high CNTF and the JAK inhibitor (FIG. 4e).
Conversely, treatment with ciliary neurotrophic factor (CNTF), a cytokine that opposes the signal transduction pathway downstream of Notch activation opposed the ability of D114 to induce Hes3 transcription. Immunohistochemical experiments were performed that documented D114, CNTF regulate Hes3 expression. Thus, at the protein expression level, D114 maintains and CNTF inhibits Hes3 expression.

[3] = tested on: Notch1; experiment: Notch activation (Notch1IC / Notch ICD) immunocytochemical detection; format: cell-based, mouse; conditions: Notch ligands 1 hour
Description: Antibodies were used that specifically bind: Notch1IC (Chemicon, 5352), GFP (Molecular Probes, A11122), Oct3/4 (Santa Cruz, sc-5279), SSEA1 and SSEA4 (Developmental Studies HybridomaBank), Tra-1-60 (Chemicon, MAB4360), Tra-1-81 (Chemicon, MAB4381), human nestin (Chemicon, MAB5326), Sox-1 (Gift from Dr. R Lovell-Badge), TH (Pel-Freez, P40101-0), Tuj1 (Covance, MMS-435P), rat nestin (McKay Lab), GFAP (Dako, z0334), CNPase (Chemicon, MAB326), BrdU (Accurate, H5903), DCX (Santa Cruz, sc-8066), Sox2 (R&D, MAB2018), Hu (Molecular Probes, A21271).
To assay for Notch activation, cultures were treated with the Notch ligands for 1 hour and Notch1 activation was detected by immunocytochemical staining of Notch1IC (FIG. 1b).
It was determined that insulin facilitates Notch cleavage using immunocytochemical detection.

[4] = tested on: p38, SMAD1/5/8, MSK-1, STAT3 phosphorylation in hES cells; experiment: Signalling immunoblots in hES cells
Experimental: Immunoblotting: Immunoblotting was performed as previously described (Panchision et al., Genes Dev 15:2094-110, 2001). The following antibodies were used in the experiments described below: pSer473-Akt (92715), pSer308-Akt (9275), pSer2448-mTOR (29715), pThr180/Tyr182-p38 (9211), pSMAD1/5/8 (9511) from Cell Signaling; STAT3 (482), pSer727-STAT3 (8001-R), pTyr705-STAT3 (7993) from Santa Cruz; Sonic Hedgehog (R&D, AF464), nucleostemin (McKay Lab), Hes3 (Chemicon, AB5706), α-tubulin (Sigma, T-6074).
To determine whether in the hES system JAK inhibition reduced p38 activity, cells were treated in the absence of MEF with JAK inhibitor for different times and assayed for p38 phosphorylation.

[5] = tested on: HSF6 hES cells; experiment: hES single cell plating efficiency, HSF-6; format: cell-based, human; conditions: one week treatment
Description: The human ES cell lines HSF-6 (University of California, San Francisco; NIH # UC06, Passage 38-120) and H1 and H9 (WiCell Research Institute, NIH # WA01 and […]) were maintained on mouse embryonic fibroblasts (MEF) according to the suppliers' protocols. Immunocytochemistry and FACS analysis for the expression of Oct4 and SSEA4 and SKY karyotyping established that the starting cells are undifferentiated and have a normal set of chromosomes. For single cell survival experiments, hES colonies were harvested after treatment with 1.5 mg/ml collagenase type IV (Invitrogen), separated from the MEF feeder cells by repeated washing by gravity, gently triturated to break up colonies into small aggregates, further dissociated into a single cell solution by trypsination (0.05% trypsin/0.04% EDTA) and transferred on MEF feeder cells at a density of 10000 cells/ml. Oct-4 positive colonies were counted six days after plating. […]
The pro-survival effects of activation of Notch and inhibition of JAK was tested on HSF-6 (NIH code UC06, http://escell.ucsf.edu), H1 (NIH code WA01, www.wicell.org) and H9 (NIH code WA09, www.wicell.org) hES cells. Singly dissociated hES cells were plated on mouse embryo fibroblasts (MEFs), treated daily for one week and colony numbers counted. […]

[6] = tested on: E13.5 cortical embryonic mouse CNS stem cells; experiment: CNS stem cell plating efficiency / colony formation / survival; format: cell-based; conditions: 5 days, versus FGF2 control; CNTF low 0.01, 0.1 ng/ml or high 20 ng/ml with JAK inhibitor
Experimental: Cell culture: E13.5 cortical embryonic mouse and adult rat subventricular zone CNS stem cells were grown as previously described (Johe et al., Genes Dev 10:3129-40, 1996; Rajan et al., J Neurosci 18:3620-9, 1998). Cells were expanded in serum-free DMEM/F12 medium with N2 supplement with FGF2 (20 ng/ml) for 5 days and were re-plated at 1000-10,000 cells per cm^2. FGF2 was included throughout our experiments, unless otherwise stated.
To explore these paradoxical observations, CNS stem cell cultures from mid-gestation (embryonic day 13.5) mouse dorsal telencephalon were treated with soluble Notch ligands. […] Following initial passaging, the cells were plated at a density of 1000 cells/cm^2, cultured for 5 days in the presence of FGF2, and colony numbers, sizes, and BrdU incorporation (after a 4 hour BrdU pulse) were enumerated. Notch activation by Jagged-1 or Delta-4 (200 ng/ml) increased the number of colonies generated in vitro by over 3-fold (FIG. 1a). […] The effects of Notch activation were most dramatic when treatments were initiated at the start of the culture.
Insulin in the medium is also thought to promote cell survival. […] Seeding cells in the absence of insulin caused the plating efficiency measured at five days to drop to 29.9%±37.9 (FIG. 1e). Delta-4 was able to compensate for the lack of insulin in the medium, and restored plating efficiency (125%±19.4). Because Notch activation improved survival, activation of Akt, a ser/threonine kinase known to be involved in cell survival, was assayed. Notch activation rapidly (5 minutes) promoted the phosphorylation of Akt on Ser473 and […] in both the presence and absence of insulin (FIG. 1f).

[7] = tested on: mES (D3) cells; experiment: mES cell plating efficiency, Oct4 and STAT3 phosphorylation in the presence of LIF; format: cell-based, mouse
Description: FIGS. 10a-10c are a set of images showing JAK inhibition reduces the phosphorylation of STAT3 on Ser727 in mES cell cultures. […] Very low levels of phosphorylated p38 were detectable under all conditions. […] Self-renewal of mES cells correlated with Ser727 phosphorylation.
mES (D3) cells were obtained from ATCC and were maintained in feeder-free cultures on gelatin-coated plates supplemented with 1400 units/ml LIF.
There is great interest in conditions that support the growth of mouse and human ES cells. In contrast to CNS SC (FIG. 2, FIG. 3) and hES SC (se below), the growth of undifferentiated mouse ES cells depends on the stimulation of the JAK/STAT pathway and STAT3 phosphorylation on Tyr705 has been specifically shown to be essential for self-renewal of mouse ES cells (Niwa et al., Genes Dev 12:2048-60, 1998; Matsuda et al., Embo J 18:4261-9, 1999). Ligands that stimulate the JAK/STAT pathway cause human ES cells to differentiate (Daheron et al., Stem Cells 22:770-8, 2004; Humphrey et al., Stem Cells 22:522-30, 2004). It was determined if the Notch/sSTAT survival pathway is present in mouse or human ES cells.

[8] = tested on: nucleostemin, SHH; experiment: Nucleostemin and SHH protein expression in CNS stem cells; format: cell-based, mouse
Description: The interest in stem cell self-renewal mechanisms prompted analysis of potential down-stream components of the Notch/STAT3-Ser727 (Notch/sSTAT) pathway. Nucleostemin is a p53-binding protein expressed in self-renewing CNS stem cells and cancer cells (Tsai et al., J Neurosci 20:3725-35, 2000; Tsai et al., J Cell Biol 168:179-84, 2005). Sonic Hedgehog (SHH) is a protein with functions in fate specification and stem cell survival in the fetal and adult CNS (Palma et al., Development 132:335-44, 2005).
There are two forms of mRNA encoded by the Hes3 gene, Hes3a and Hes3b.

## CN(C)S(=O)(=O)c1ccc2c(c1)/C(=C/c1cc3c([nH]1)CCCC3)C(=O)N2 [SU6656, reference compound]
[1]
  effect on STAT3-Ser727 phosphorylation following Notch activation: blocked

## C[C@H](NC(=O)Cc1cc(F)cc(F)c1)C(=O)N[C@H](C(=O)OC(C)(C)C)c1ccccc1 [DAPT, reference compound]
[2]
  effect on Jagged-induced Hes3 mRNA induction: inhibited Hes3 induction by Jagged1
[1]
  basal levels of pSer727: reduced the basal levels of pSer727
  effect on STAT3-Ser727 phosphorylation following Notch activation: blocked
[3]
  accumulation of Notch1IC: blocks the accumulation of Notch1IC

## COc1ccc(S(=O)(=O)Nc2ccccc2CN(C)C/C=C/c2ccc(Cl)cc2)cc1 [KN92, reference compound]
[1]
  effect on STAT3-Ser727 phosphorylation following Notch activation: no effect

## C[S+]([O-])c1ccc(-c2nc(-c3ccc(F)cc3)c(-c3ccncc3)[nH]2)cc1 (stereo not drawn) [p38 inhibitor, 4-(4-Fluorophenyl)-2-(4-methylsulfinylphenyl)-5-(4-pyridyl)1H-imidazole]
[4]
  STAT3 phosphorylation on Ser727: stimulated STAT3 phosphorylation on Ser727
  phosphorylation of MSK-1 kinase: reduced the phosphorylation of MSK-1 kinase
  phosphorylation of SMAD 1/5/8: reduced in a time-dependent manner
[5]
  human ES cell survival: stimulated human ES cell survival
[6]
  CNS stem cell survival / plating efficiency: enhanced survival to a similar extent to the JAK inhibitor
[7]; five day treatments in the presence of LIF
  Oct4 expression: did not affect Oct4 expression
[7]; in the presence of LIF
  cell survival in a plating efficiency assay: did not significantly alter cell survival

B1: CNTF: cilliary neurotrophic factor, CNTF (577-NT) from R&D (protein, UniProt P26441 1-200, looked up)
Ciliary neurotrophic factor: MAFTEHSPLTPHRRDLCSRSIWLARKIRSDLTALTESYVKHQGLNKNINLDSADGMPVASTDQWSELTEAERLQENLQAYRTFHVLLARLLEDQQVHFTPTEGDFHQAIHTLLLQVAAFAYQIEELMILLEYKIPRNEADGMPINVGDGGLFEKKLWGLKVLQELSQWTVRSIHDLRFISSHQTGIPARGSHYIANNKKM
[6]
  CNS stem cell survival / plating efficiency: increased survival; also recorded: support CNS stem cell survival
[8]
  nucleostemin and SHH protein expression: Nucleostemin levels were also increased
[2]; CNTF 20 ng/ml
  Hes3 mRNA levels: did not induce Hes3 mRNA
[2]
  effect on Jagged-induced Hes3 mRNA induction: inhibited Hes3 induction by Jagged1
[2]; immunohistochemical
  Hes3 expression at the protein expression level: inhibits
[1]
  time of peak STAT3 phosphorylation: around 30 min
[1]; dose response, 30 minutes
  concentration at which phosphorylation of STAT3 on Tyr705 occurs: > 1 ng/mL
  concentration inducing phosphorylation of STAT3 on Ser727: < 0.5 ng/mL
